According to patent US20260325485A1, “COMPOSITIONS AND METHODS FOR TREATING PANCREATITIS” (The United States Government as represented by the …, priority 2022, published 2026):

Legend:
mouse acinar cells = experiment: Total cholesterol content of mouse acinar cells (ex vivo pancreatitis models or cholesterol chelator); type: cell-based; design: total cholesterol in acinar cells, physiologic doses: dose or concentration left out as unconfirmed; details: for cholesterol overload, mouse acinar cells: ex-vivo pancreatitis, 1 h, 100 nM CCK, 1 mM carbachol or 500 μM TLCS
Procedure: (§1) FIGS. 8A-8M show derangement of cholesterol metabolism in experimental pancreatitis. Characteristics of cholesterol metabolism were measured, as detailed in FIGS. 4A-4R, in pancreas of WT mice subjected to pancreatitis induced with cerulein (CER-AP), L-arginine (Arg-AP), or CDE diet (CDE-AP) (A, B, and E-G); ex vivo pancreatitis induced in WT mouse (C and I-M) or human acinar cells (D) with 100 nM CCK (CCK-AP) or 1 mM carbachol; and isolated pancreatic mitochondria (H). (B) Cholesterol ester (CE) heatmap; each column represents an individual mouse. (F) IB analysis of the indicated proteins. (G) LAL activity was measured by a fluorogenic assay (n=6 mice per condition). (H) Cholesterol content was measured by enzymatic assay. (I-M) Filipin colocalization with indicated proteins was quantified as detailed in FIGS. 2A-2L. Each symbol in A, C-E, and H represents an individual mouse, or cell or mitochondria preparation (n=3-15 per condition). Each symbol in J, K, and M corresponds to 20-30 cells in a different field (n=10-20 fields from 3 cell preparations per condition). Values are mean±SEM. *P<0.05, **P<0.01, ***P<0.001 vs. the same parameter in control/untreated pancreas, acinar cells or isolated mitochondria. Significance was determined by 2-tailed Student's t test (B, E, H, J, K, and M) or 1-way ANOVA followed by Tukey's multiple comparison test (A, C, and D). Scale bars: 10 μm.
(§2) Parameters of cholesterol metabolism were measured in (A, B, E, F) pancreas of mice subjected to pancreatitis induced with cerulean (CER-AP), L-arginine (Arg-AP), or combination of EtOH+palmitoleic acid (EtOH+POA); and (C) ex-vivo models on mouse and human acinar cells treated for 1 h with 100 nM CCK, […] or 500 μM TLCS. In (A), each column in CE heatmap represents an individual mouse. (B, C) Total cholesterol content was measured with cholesterol assay kit (Abcam, ab65390). […] Each symbol corresponds to 20-30 cells in each of 8 high-expression (qPCR) of proteins regulating cholesterol synthesis (4 mice/group). (B-D) Each symbol represents an individual animal or cell preparation. (A-D, F) Values are mean±SE (*p<0.05, **p<0.01, ***p<0.001 vs saline or control). Signficance was determined by 2-tailed student's t test.
(§3) Ex vivo pancreatitis models were performed on mouse and human acinar cells, and human pancreas slices by incubation with supramaximal CCK (100 nM) or carbachol (1 mM), as described previously (80, 81).
(§4) Total cholesterol content was measured with Cholesterol Assay kit per manufacturer's instructions. Samples of mouse pancreas and liver, cell pellet homogenates, subcellular fractions, isolated mitochondria, and serum were diluted in the reaction buffer containing cholesterol probe and incubated at 37° C. for 1 h in the dark. To measure total cholesterol, the samples were subjected to digestion with cholesterol esterase. To measure non-esterified cholesterol, the esterase was omitted from the assay.
Fluorescence intensity (for cholesterol) and absorbance (for TAG) were measured in a Tecan microplate reader. Each measurement was in duplicate, and the values were normalized per mg total protein in the sample.

human acinar cells = experiment: Total cholesterol content of human acinar cells (ex vivo pancreatitis models); type: cell-based; details: for cholesterol overload, human acinar cells: ex-vivo pancreatitis, 1 h, 100 nM CCK, 1 mM carbachol or 500 μM TLCS
Procedure: as §1, §2, §3
Human pancreas slices were obtained as in (12), from portions of live normal human pancreata from pre-terminal donors that were not used for transplantation and diverted to research (provided by Trillium Gift of Life Network, Toronto, Ontario, year 2020) or from normal portions of pancreatic cancer operations. Pancreas was cut into ~3×3×3 mm pieces and embedded with 37° C. low melting 3.8% agarose gel in extracellular solution containing (mM): 125 NaCl, 2.5 KCl, 1 MgCl2, 2 CaCl2, 1.25 NaH2PO4, 26 NaHCO3, 2 sodium pyruvate, 0.25 ascorbic acid, 3 myo-inositol, 6 lactic acid, and 7 glucose, and placed on ice to solidify the gel. The gelled tissue blocks were sliced with Vibratome into 120 μm-thick slices; slices were washed with the same extracellular solution, placed in 199 medium containing 0.1 mg/mL soybean trypsin inhibitor, and treated with CCK-8 (CCK) or carbachol for ex-vivo pancreatitis.
Total cholesterol content was measured with Cholesterol Assay kit per manufacturer's instructions. […]

NPC1 [1] = biological target: T1, NPC1 (Mus musculus, UniProt O35604); experiment: Effects of NPC1 inhibitor U18666A on WT mouse pancreas; type: in vivo; details: 15 days
T1 sequence (O35604 23-1277): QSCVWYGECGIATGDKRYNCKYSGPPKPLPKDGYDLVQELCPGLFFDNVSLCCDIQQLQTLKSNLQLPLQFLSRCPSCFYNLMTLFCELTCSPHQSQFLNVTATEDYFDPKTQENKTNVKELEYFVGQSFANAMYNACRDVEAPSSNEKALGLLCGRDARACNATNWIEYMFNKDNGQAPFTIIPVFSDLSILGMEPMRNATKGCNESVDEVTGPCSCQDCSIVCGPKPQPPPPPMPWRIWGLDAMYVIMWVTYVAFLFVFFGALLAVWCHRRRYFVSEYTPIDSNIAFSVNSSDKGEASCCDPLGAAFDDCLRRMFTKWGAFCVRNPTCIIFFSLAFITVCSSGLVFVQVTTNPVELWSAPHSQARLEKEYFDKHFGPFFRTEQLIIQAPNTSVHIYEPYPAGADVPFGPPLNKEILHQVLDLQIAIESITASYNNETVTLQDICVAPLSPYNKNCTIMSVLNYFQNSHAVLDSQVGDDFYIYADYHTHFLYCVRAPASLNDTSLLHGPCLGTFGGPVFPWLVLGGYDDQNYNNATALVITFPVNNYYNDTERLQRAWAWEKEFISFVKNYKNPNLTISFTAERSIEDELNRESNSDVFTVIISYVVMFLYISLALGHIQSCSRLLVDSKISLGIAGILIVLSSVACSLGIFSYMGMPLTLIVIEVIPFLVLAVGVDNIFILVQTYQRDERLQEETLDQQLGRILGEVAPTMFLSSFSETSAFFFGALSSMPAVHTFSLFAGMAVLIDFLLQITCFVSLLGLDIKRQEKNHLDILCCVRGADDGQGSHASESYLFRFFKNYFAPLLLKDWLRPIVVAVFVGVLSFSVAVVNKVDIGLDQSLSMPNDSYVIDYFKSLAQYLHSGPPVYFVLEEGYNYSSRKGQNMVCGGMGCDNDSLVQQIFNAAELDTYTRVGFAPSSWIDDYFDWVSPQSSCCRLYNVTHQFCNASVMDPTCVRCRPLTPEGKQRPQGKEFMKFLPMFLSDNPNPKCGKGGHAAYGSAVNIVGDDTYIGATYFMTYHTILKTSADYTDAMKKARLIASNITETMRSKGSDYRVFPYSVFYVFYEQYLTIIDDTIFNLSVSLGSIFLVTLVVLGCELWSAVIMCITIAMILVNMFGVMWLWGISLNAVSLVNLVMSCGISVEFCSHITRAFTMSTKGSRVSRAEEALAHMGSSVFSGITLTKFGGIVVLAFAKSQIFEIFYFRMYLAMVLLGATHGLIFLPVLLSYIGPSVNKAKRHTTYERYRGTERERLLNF
Procedure: FIGS. 9A-9E show cerulein pancreatitis decreases pancreatic levels of GNPTAB and mediators of cholesterol trafficking through LE/Ly. (A, D, and E) IB analysis of the indicated proteins in pancreas of WT mice subjected to CER-AP and in Gnptab^−/− mice. NS, nonspecific band. (B and C) Cholesterol content was measured in pancreas of (B) WT mice that received daily i.p. injections of the NPC1 inhibitor U18666A (10 mg/kg) or vehicle for 15 days and (C) Lamp2^−/− mice. Each symbol in B, C, and E represents an individual mouse. Values are mean±SEM from 3 to 5 mice per condition. ***P<0.001 vs. the same parameter in WT control/untreated or saline-treated mice. Significance was determined by 2-tailed Student's t test (B and C) or 1-way ANOVA followed by Tukey's multiple comparison test (E).
(§5) FIGS. 10A-10N show deranged cholesterol metabolism causes acinar cell damage, while its normalization ameliorates experimental pancreatitis. (A-D) Cholesterol content and trypsin activity were measured (per mg protein) in WT mouse acinar cells incubated for 1 hour without and with methyl-β-cyclodextrin (MCD; 10 mM) or cholesterol-loaded MCD (MCD-Chol; 200 μg/mL), in the presence or absence of 100 nM CCK. Values are expressed relative to those in cells without MCD/MCD-Chol. (E-J) WT mice received daily i.p. injections of the LXR agonist T0901317 (T09), simvastatin (Sim; 20 mg/kg each), or vehicle. On day 4, mice were subjected to CER-AP and pancreata collected for analyses (see also FIG. 20). Cholesterol content (E), trypsin activity (F), and pancreas histopathology (H&E staining; G) were measured. (H, I, L, and N) IB analysis of markers/mediators of autophagy (LC3, p62), ER stress (CHOP, GRP-78), and mitophagy (Parkin). Ub, ubiquitylated proteins. (J) Mitochondrial fragmentation was assessed by immunostaining for Tom20, as detailed in FIG. 7G. (K and L) Mouse acinar cells were treated for 16 hours with LDL (30 μg/mL) or the combination of LDL and 10 μM U18666A. (M and N) Mice received injections of U18666A as detailed in FIG. 9B. Pancreas histopathology (H&E staining; M) and levels of autophagy markers/mediators (N) were measured. Each symbol in A-F and I represents an individual mouse or cell preparation. Values are mean±SEM from 3 to 7 mice or cell preparations per condition. ^§ P<0.05, ^§§ P<0.01 vs. control cells (without MCD/MCD-Chol). ***P<0.001 vs. saline-treated mice. ^#P<0.05, ^##P<0.01, ^###P<0.001 vs. CER-AP alone (no inhibitors). Significance was determined by 2-tailed Student's t test (A-D) or 1-way ANOVA followed by Tukey's multiple comparison test (E, F, and I). Scale bars: 10 μm.
viii. In Vivo Treatments of Mice
12-week-old WT mice were subjected for 4 consecutive days to daily i.p. injections of 20 mg/kg simvastatin (8,9) or 20 mg/kg T0901317 (10); or 10 mg/kg U18666A for 15 days (11). Control mice received vehicle injections. Some of the simvastatin- and T0901317-treated mice were subjected to CER-AP on day 4, as indicated in corresponding figures.
as §4
Pancreatitis responses were measured as previously described (1-7). Serum amylase and lipase were measured in a Hitachi 707 analyzer. Acinar cell vacuolization and necrosis were quantified on H&E stained pancreatic tissue sections; at least 1000 acinar cells/mouse were analyzed in several high-power fields. ATP was measured in tissue homogenates using bioluminescence assay (3-5).

NPC1 [2] = biological target: T1, NPC1; experiment: Effects of U18666A with LDL on WT acinar cells; type: cell-based; details: LDL 30 μg/mL + 10 μM U18666A, 16 hours
Procedure: as §5
To examine the effect of disrupted cholesterol turnover, WT acinar cells were incubated with LDL-cholesterol in the presence and absence of the NPC1 inhibitor U18666A. U18666A caused cholesterol accumulation in LE/Ly (filipin staining; FIG. 10K), resulting in impaired autophagy (manifested by concomitant accumulation of LC3-II and ubiquitylated proteins) and increases in CHOP and Parkin (FIG. 10L).
Immunoblots were developed using enhanced chemiluminescence detection kit (Pierce), and band intensities were quantified by densitometry using FluorChem HD2 imaging system (Alpha Innotech/ProteinSimple).
Staining for neutral lipids and free cholesterol was performed by incubation of fixed-frozen tissue sections or fixed cells with, respectively, 2 μg/ml BODIPY493/503 for 45 min or 100 µg/ml filipin for 2 h at room temperature. For double labeling, BODIPY493/503 or filipin were applied after fixed-frozen tissue or cell sections incubated with primary and secondary antibodies.

[3] = supramaximal (100 nM) CCK-8 or carbachol, ex vivo AP

SMILES | cholesterol overload, mouse acinar cells (mouse acinar cells) | cholesterol overload, human acinar cells (human acinar cells) | cholesterol content in WT mouse pancreas, U18666A (NPC1 [1]; 10 mg/kg daily i.p.) | LC3-II in mouse pancreas (NPC1 [1]; 10 mg/kg i.p. daily) | acinar cell vacuolization, mice (NPC1 [1]; 10 mg/kg i.p. daily) | inflammation, mouse pancreas (NPC1 [1]; 10 mg/kg i.p. daily) | p62 in mouse pancreas (NPC1 [1]; 10 mg/kg i.p. daily) | ubiquitylated proteins in mouse pancreas (NPC1 [1]; 10 mg/kg i.p. daily) | necrosis, mouse pancreas (NPC1 [1]; 10 mg/kg i.p. daily, up to ~) [%] | CHOP, acinar cells (NPC1 [2]) | LC3-II (impaired autophagy), acinar cells (NPC1 [2]) | Parkin, acinar cells (NPC1 [2]) | cholesterol in LE/Ly (filipin staining) (NPC1 [2]) | ubiquitylated proteins (impaired autophagy), acinar cells (NPC1 [2]) | total cholesterol in acinar cells, physiologic doses (mouse acinar cells; physiologic doses of CCK or carbachol) | cholesterol content, mouse acinar cells, supramaximal stimulation (mouse acinar cells; [3]) | cholesterol content, human acinar cells, supramaximal stimulation (human acinar cells; [3])
C[C@H](CCC(=O)NCCS(=O)(=O)O)[C@H]1CC[C@H]2[C@@H]3CC[C@@H]4C[C@H](OS(=O)(=O)O)CC[C@]4(C)[C@H]3CC[C@]12C [TLCS] | prominent | prominent |  |  |  |  |  |  |  |  |  |  |  |  |  |  | 
CCN(CC)CCO[C@H]1CC[C@@]2(C)C(=CC[C@@H]3[C@@H]2CC[C@]2(C)C(=O)CC[C@@H]32)C1 [U18666A, 3-beta-[2-(diethylamino)ethoxy] androst-5-en-17-one] |  |  | elevated | accumulation | increased | inflammation | accumulation | accumulation | ≤ 20 | increases | accumulation | increases | accumulation | accumulation |  |  | 
C[N+](C)(C)CCOC(N)=O [carbachol] | prominent | prominent |  |  |  |  |  |  |  |  |  |  |  |  | did not alter | increased | increased
